Data as given in patent US20090286797A1, “Novel Quinoxaline Derivatives and Their Medical Use” (priority 2005, published 2009).

Biological target: T1, human glutamate receptor GluR1-flip (Homo sapiens, UniProt P42261)
T1 construct: expressed in transfected cells; host or cells: Chinese Hamster Ovary (CHO) cells
Assay: Whole cell patch clamp on CHO cells expressing human GluR1-flip; glutamate-induced current desensitization
Assay type: cell-based
Settings: 1 mM test compound co-applied with 10 mM L-glutamate after 30 seconds pre-incubation, hGluR1(i), whole cell voltage clamp
Excerpt: In this experiment we investigated the influence of the test compounds on the membrane currents when determined electrophysiologically on Chinese Hamster Ovary (CHO) cells capable of expressing the human glutamate receptor GluR1-flip, obtained essentially as described by Fletcher E J & Lodge D, Pharmacol. Ther. 1996 70 (1) 65-89, the current through the channels being recorded using patch clamp technique in whole cell voltage clamp mode.
Current responses were induced by applying L-glutamate at a saturating concentration of 10 mM, and the modulatory effect of the test compound was evaluated by co-applying the test compound and L-glutamate upon a 30 seconds pre-incubation period, and comparing with […].

T1 sequence (P42261 19-906 isoform P42261-2 limits assumed): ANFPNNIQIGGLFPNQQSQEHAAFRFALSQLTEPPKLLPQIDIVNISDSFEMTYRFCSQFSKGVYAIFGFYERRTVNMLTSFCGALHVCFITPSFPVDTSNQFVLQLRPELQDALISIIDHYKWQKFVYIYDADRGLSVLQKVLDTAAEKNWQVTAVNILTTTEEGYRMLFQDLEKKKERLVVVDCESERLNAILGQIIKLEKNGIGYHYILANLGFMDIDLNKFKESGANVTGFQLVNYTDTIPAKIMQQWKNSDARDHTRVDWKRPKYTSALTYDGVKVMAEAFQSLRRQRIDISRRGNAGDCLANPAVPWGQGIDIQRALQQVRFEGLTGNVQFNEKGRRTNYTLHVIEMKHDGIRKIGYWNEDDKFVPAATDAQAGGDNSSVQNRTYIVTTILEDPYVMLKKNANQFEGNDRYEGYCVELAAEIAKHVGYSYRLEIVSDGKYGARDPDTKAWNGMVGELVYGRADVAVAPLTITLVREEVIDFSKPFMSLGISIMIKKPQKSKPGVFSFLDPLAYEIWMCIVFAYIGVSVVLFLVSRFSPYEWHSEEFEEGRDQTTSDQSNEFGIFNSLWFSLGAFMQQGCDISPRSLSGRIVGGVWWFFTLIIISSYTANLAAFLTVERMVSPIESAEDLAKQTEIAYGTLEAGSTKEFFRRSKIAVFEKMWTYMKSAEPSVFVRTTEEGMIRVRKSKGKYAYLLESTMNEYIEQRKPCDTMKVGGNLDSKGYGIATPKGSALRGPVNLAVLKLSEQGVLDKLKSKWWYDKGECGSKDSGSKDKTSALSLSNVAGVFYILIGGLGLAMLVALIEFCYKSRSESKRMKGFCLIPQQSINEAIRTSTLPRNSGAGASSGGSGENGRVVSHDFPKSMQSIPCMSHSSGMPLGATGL

Compound: CC1CCCN(C(=O)c2ccc3nccnc3c2)C1 (racemic) [Compound A4, (±)-(3-Methyl-piperidin-1-yl)-guinoxalin-6-yl-methanone]
- degree of desensitization: 95.2+/−0.2%

Compound: O=C(c1ccc2nccnc2c1)N1CCCCC1 [Reference compound, Piperidin-1-yl-quinoxalin-6-yl-methanone]
- degree of desensitization: 98.0+/−0.8%
